Key:
Format in all cases: cell-based
[1] = target: proteins of U3A human fibrosarcoma cells (4462 proteins detected) (Homo sapiens, UniProt O76061); conditions: protein STC2; U3A cells
[2] = target: proteins of U3A human fibrosarcoma cells (4462 proteins detected) (Homo sapiens, UniProt O00299); conditions: protein CLIC1, U3A cells
[3] = target: proteins of U3A human fibrosarcoma cells (4462 proteins detected) (Homo sapiens, UniProt Q7Z5L2); conditions: protein R3HCC1L; U3A, 10 μM, 2 h
[4] = target: proteins of U3A human fibrosarcoma cells (4462 proteins detected) (Homo sapiens, UniProt O94829); conditions: protein IPO13; U3A cells
[5] = target: proteins of U3A human fibrosarcoma cells (4462 proteins detected) (Homo sapiens, UniProt Q99832); conditions: protein CCT7; U3A cells
[6] = target: proteins of U3A human fibrosarcoma cells (4462 proteins detected) (Homo sapiens, UniProt P56277); conditions: protein CMC4; U3A, 10 μM, 2 h
[7] = target: proteins of U3A human fibrosarcoma cells (4462 proteins detected) (Homo sapiens, UniProt Q3B726); conditions: protein TWISTNB; U3A cells
[8] = target: proteins of U3A human fibrosarcoma cells (4462 proteins detected) (Homo sapiens, UniProt Q04721); conditions: protein NOTCH2, U3A cells
[9] = target: proteins of U3A human fibrosarcoma cells (4462 proteins detected) (Homo sapiens, UniProt Q12933); conditions: protein TRAF2; U3A cells
[10] = target: proteins of U3A human fibrosarcoma cells (4462 proteins detected) (Homo sapiens, UniProt P17987); conditions: protein TCP1; U3A cells
[11] = target: proteins of U3A human fibrosarcoma cells (4462 proteins detected) (Homo sapiens, UniProt P82933); conditions: protein MRPS9; soluble abundance after heat, U3A cells
[12] = target: proteins of U3A human fibrosarcoma cells (4462 proteins detected) (Homo sapiens, UniProt P55769); conditions: protein NHP2L1; soluble abundance after heat, U3A cells
[13] = target: proteins of U3A human fibrosarcoma cells (4462 proteins detected) (Homo sapiens, UniProt Q9H9F9); conditions: protein ACTR5; U3A cells
[14] = target: proteins of U3A human fibrosarcoma cells (4462 proteins detected) (Homo sapiens, UniProt O95292); conditions: protein VAPB; U3A cells
[15] = target: proteins of U3A human fibrosarcoma cells (4462 proteins detected) (Homo sapiens, UniProt Q9BYG3); conditions: protein NIFK; soluble abundance after heat, U3A cells
[16] = target: proteins of U3A human fibrosarcoma cells (4462 proteins detected) (Homo sapiens, UniProt Q6P1L8); conditions: protein MRPL14, U3A cells
[17] = target: proteins of U3A human fibrosarcoma cells (4462 proteins detected) (Homo sapiens, UniProt P13693); conditions: protein TPT1, U3A cells
[18] = target: proteins of U3A human fibrosarcoma cells (4462 proteins detected) (Homo sapiens, UniProt Q8N5G2); conditions: protein TMEM57; U3A cells
[19] = target: proteins of U3A human fibrosarcoma cells (4462 proteins detected) (Homo sapiens, UniProt P50542); conditions: protein PEX5, U3A cells
[20] = target: proteins of U3A human fibrosarcoma cells (4462 proteins detected) (Homo sapiens, UniProt Q15428); conditions: protein SF3A2; U3A cells
[21] = target: proteins of U3A human fibrosarcoma cells (4462 proteins detected) (Homo sapiens, UniProt P21266); conditions: protein GSTM3, U3A cells
[22] = target: proteins of U3A human fibrosarcoma cells (4462 proteins detected) (Homo sapiens, UniProt Q15041); conditions: protein ARL6IP1; U3A cells
[23] = target: proteins of U3A human fibrosarcoma cells (4462 proteins detected) (Homo sapiens, UniProt P22059); conditions: protein OSBP; soluble abundance after heat, U3A cells
[24] = target: proteins of U3A human fibrosarcoma cells (4462 proteins detected) (Homo sapiens, UniProt Q6P2Q9); conditions: protein PRPF8; soluble abundance after heat, U3A cells
[25] = target: proteins of U3A human fibrosarcoma cells (4462 proteins detected) (Homo sapiens, UniProt O95801); conditions: protein TTC4; soluble abundance after heat, U3A cells
[26] = target: proteins of U3A human fibrosarcoma cells (4462 proteins detected) (Homo sapiens, UniProt Q9NX58); conditions: protein LYAR; U3A cells
[27] = target: proteins of U3A human fibrosarcoma cells (4462 proteins detected) (Homo sapiens, UniProt P06748); conditions: protein NPM1; U3A cells
[28] = target: proteins of U3A human fibrosarcoma cells (4462 proteins detected) (Homo sapiens, UniProt Q15051); conditions: protein IQCB1; U3A, 10 μM, 2 h
[29] = target: proteins of U3A human fibrosarcoma cells (4462 proteins detected) (Homo sapiens, UniProt P49459); conditions: protein UBE2A, U3A cells
[30] = target: proteins of U3A human fibrosarcoma cells (4462 proteins detected) (Homo sapiens, UniProt Q6GYQ0); conditions: protein RALGAPA1; U3A, 10 μM, 2 h

Chain of proteins of U3A human fibrosarcoma cells (4462 proteins detected) (Homo sapiens, UniProt Q04721) (Q04721 26-2471): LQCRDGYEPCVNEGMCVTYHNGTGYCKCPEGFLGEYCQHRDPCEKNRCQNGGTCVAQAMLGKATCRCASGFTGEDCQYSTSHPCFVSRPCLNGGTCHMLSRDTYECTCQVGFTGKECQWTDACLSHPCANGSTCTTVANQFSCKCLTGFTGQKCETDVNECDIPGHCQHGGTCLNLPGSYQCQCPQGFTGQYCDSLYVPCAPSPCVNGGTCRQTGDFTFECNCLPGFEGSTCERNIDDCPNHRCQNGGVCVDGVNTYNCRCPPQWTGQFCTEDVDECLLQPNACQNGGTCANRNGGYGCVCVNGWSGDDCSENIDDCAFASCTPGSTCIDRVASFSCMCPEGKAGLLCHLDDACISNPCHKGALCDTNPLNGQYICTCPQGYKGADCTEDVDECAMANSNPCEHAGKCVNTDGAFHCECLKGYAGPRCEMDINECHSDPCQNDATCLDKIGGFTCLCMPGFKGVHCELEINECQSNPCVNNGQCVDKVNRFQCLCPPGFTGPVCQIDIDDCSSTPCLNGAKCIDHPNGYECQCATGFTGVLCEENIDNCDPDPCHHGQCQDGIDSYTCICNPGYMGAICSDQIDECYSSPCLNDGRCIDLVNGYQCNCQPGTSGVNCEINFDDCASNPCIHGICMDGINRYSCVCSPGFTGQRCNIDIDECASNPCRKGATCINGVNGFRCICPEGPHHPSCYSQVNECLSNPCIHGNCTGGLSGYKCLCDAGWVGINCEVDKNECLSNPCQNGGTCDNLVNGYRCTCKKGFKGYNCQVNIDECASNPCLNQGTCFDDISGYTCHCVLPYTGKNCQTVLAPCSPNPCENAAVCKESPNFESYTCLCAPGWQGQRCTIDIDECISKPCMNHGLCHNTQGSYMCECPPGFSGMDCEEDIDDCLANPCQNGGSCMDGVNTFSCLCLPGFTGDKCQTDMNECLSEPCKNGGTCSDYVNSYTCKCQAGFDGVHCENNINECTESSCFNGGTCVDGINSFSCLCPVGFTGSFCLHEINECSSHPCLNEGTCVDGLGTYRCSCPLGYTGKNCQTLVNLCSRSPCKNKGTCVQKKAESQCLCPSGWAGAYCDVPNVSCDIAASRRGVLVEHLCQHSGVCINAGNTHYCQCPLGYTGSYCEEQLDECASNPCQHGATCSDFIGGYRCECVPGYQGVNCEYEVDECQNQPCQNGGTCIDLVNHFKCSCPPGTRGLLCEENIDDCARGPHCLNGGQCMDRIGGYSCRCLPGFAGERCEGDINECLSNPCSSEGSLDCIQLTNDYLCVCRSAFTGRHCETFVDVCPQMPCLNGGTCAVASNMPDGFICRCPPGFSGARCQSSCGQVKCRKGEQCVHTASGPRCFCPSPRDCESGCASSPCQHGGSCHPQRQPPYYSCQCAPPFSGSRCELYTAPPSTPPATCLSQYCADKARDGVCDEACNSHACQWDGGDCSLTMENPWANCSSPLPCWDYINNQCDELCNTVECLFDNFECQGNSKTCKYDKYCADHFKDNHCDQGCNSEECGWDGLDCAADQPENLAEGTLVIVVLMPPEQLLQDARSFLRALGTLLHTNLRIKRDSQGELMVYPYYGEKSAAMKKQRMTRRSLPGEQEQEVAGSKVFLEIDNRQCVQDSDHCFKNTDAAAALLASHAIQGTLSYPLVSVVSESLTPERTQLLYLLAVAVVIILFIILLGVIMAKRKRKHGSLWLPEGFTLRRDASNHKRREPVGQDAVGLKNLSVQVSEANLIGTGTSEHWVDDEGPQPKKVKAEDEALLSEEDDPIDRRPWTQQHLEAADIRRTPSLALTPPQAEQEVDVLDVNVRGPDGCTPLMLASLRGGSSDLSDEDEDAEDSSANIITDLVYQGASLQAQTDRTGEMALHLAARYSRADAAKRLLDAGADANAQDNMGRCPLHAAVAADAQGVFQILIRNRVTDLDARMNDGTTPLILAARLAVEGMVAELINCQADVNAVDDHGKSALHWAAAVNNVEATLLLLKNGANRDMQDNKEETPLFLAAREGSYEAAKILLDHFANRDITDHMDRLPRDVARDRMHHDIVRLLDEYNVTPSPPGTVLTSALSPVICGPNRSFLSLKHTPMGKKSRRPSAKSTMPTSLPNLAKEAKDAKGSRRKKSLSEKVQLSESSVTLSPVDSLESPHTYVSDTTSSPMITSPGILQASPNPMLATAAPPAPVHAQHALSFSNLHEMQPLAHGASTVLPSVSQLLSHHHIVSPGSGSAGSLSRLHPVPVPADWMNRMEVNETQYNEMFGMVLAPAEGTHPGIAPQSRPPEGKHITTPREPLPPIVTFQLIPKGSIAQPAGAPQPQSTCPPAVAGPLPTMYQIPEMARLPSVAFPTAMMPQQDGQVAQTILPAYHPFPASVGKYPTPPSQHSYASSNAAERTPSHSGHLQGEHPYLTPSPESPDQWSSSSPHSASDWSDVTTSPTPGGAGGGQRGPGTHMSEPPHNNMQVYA
Chain of proteins of U3A human fibrosarcoma cells (4462 proteins detected) (Homo sapiens, UniProt P06748) (P06748 whole entry): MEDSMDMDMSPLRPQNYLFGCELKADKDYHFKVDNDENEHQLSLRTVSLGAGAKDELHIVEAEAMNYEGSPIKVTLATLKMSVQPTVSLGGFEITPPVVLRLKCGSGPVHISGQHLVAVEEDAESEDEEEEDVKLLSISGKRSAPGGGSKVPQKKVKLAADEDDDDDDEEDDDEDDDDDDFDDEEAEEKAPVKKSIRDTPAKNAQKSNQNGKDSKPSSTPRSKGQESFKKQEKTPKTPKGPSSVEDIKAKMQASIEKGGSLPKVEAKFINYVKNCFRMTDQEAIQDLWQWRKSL
Chain of proteins of U3A human fibrosarcoma cells (4462 proteins detected) (Homo sapiens, UniProt O95292) (O95292 whole entry): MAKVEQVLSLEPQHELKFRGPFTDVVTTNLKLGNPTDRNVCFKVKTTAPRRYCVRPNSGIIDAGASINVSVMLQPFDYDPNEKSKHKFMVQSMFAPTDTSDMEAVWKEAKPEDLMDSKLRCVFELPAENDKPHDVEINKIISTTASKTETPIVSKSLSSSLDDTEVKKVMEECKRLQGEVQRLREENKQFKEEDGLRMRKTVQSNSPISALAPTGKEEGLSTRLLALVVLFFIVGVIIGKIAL
Chain of proteins of U3A human fibrosarcoma cells (4462 proteins detected) (Homo sapiens, UniProt Q99832) (Q99832 whole entry): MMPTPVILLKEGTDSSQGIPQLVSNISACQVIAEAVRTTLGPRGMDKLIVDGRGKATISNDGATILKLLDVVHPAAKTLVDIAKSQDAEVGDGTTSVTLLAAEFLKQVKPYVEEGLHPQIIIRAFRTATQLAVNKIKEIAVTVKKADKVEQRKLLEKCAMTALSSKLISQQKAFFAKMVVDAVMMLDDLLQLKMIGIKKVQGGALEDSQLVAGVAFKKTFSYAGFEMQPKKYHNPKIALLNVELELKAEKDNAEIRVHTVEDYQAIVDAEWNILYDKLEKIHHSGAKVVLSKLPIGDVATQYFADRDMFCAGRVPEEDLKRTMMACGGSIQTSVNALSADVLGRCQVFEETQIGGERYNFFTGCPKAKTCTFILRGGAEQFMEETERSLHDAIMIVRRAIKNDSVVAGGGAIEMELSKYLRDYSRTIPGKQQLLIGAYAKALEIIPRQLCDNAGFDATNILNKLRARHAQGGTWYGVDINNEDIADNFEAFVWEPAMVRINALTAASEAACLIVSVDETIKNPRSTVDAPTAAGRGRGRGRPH
Chain of proteins of U3A human fibrosarcoma cells (4462 proteins detected) (Homo sapiens, UniProt Q9NX58) (Q9NX58 whole entry): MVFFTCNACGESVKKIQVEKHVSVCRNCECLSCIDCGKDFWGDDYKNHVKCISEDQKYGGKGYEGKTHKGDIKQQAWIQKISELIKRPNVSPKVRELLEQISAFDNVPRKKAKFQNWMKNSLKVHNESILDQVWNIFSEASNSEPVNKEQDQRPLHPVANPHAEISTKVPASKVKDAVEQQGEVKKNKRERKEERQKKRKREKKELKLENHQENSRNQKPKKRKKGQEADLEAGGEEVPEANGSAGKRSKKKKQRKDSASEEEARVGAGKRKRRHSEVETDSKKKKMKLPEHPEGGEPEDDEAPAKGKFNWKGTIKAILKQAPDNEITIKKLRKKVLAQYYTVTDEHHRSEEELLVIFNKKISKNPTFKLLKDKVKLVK
Chain of proteins of U3A human fibrosarcoma cells (4462 proteins detected) (Homo sapiens, UniProt Q9H9F9) (Q9H9F9 whole entry): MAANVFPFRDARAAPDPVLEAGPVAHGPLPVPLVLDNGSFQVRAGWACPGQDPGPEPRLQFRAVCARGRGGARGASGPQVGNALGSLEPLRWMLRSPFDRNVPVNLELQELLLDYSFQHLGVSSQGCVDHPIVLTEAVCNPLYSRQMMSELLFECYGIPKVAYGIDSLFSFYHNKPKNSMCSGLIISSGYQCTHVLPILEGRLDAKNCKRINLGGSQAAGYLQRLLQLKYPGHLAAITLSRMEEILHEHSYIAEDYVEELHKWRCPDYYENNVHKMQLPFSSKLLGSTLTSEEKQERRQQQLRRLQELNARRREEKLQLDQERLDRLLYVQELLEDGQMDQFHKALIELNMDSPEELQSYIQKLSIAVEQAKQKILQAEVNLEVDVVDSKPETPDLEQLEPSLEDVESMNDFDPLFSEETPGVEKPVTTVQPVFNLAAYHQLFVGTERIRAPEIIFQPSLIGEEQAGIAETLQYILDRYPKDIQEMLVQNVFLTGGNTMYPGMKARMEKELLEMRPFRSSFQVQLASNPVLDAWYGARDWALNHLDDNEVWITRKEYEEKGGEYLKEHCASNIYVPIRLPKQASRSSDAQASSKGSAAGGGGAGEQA
Chain of proteins of U3A human fibrosarcoma cells (4462 proteins detected) (Homo sapiens, UniProt O76061) (O76061 25-302): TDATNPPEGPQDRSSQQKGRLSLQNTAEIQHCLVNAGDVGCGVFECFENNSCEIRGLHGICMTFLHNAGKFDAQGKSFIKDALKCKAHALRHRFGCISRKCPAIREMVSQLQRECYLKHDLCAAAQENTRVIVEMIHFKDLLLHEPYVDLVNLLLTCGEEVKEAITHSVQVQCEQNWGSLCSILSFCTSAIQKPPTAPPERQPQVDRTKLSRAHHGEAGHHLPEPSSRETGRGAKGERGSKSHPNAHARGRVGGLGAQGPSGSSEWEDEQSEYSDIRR
Chain of proteins of U3A human fibrosarcoma cells (4462 proteins detected) (Homo sapiens, UniProt P13693) (P13693 whole entry): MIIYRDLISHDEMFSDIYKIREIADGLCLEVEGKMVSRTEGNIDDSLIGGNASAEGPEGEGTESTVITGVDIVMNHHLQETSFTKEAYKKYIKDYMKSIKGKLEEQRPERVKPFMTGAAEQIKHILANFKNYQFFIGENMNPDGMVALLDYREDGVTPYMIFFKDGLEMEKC

CCc1nc(N)nc(N)c1-c1ccc(Cl)cc1 [pyrimethamine]
Log2 (PYR/DMSO) [1]: 0.16
Log2 (PYR/DMSO) [2]: -0.03
Log2 (PYR/DMSO), R3HCC1L [3]: -0.20
Log2 (PYR/DMSO) [4]: 0.19
Log2 (PYR/DMSO) [5]: 0.18
Log2 (PYR/DMSO), CMC4 [6]: 0.24
Log2 (PYR/DMSO) [7]: 0.16
Log2 (PYR/DMSO) [8]: -0.04
Log2 (PYR/DMSO) [9]: 0.16
Log2 (PYR/DMSO) [10]: 0.21
Log2 (PYR/DMSO) [11]: 0.15
Log2 (PYR/DMSO) [12]: 0.14
Log2 (PYR/DMSO) [13]: 0.20
Log2 (PYR/DMSO) [14]: 0.19
Log2 (PYR/DMSO) [15]: 0.14
Log2 (PYR/DMSO) [16]: -0.04
Log2 (PYR/DMSO) [17]: -0.05
Log2 (PYR/DMSO) [18]: 0.17
Log2 (PYR/DMSO) [19]: -0.03
Log2 (PYR/DMSO) [20]: 0.20
Log2 (PYR/DMSO) [21]: -0.04
Log2 (PYR/DMSO) [22]: 0.17
Log2 (PYR/DMSO) [23]: 0.14
Log2 (PYR/DMSO) [24]: 0.14
Log2 (PYR/DMSO) [25]: 0.13
Log2 (PYR/DMSO) [26]: 0.18
Log2 (PYR/DMSO) [27]: 0.17
Log2 (PYR/DMSO), IQCB1 [28]: -0.16
Log2 (PYR/DMSO) [29]: -0.04
Log2 (PYR/DMSO), RALGAPA1 [30]: -0.50
